From US11993581B2, “Pyridazine compounds for inhibiting Nav1.8” (Lieber Institute, Inc., priority 2018, dated 2024)

The compounds below were run against T1, human Nav1.8 (hNav1.8) ion channel (Homo sapiens, UniProt Q9Y5Y9) (assay: Nav1.8 inhibition, estimated IC50 (Nav1.8 fluorescence, PatchXpress and/or IonFlux HT automated patch clamp assay)). Details: HEK293 cells stably expressing hNav1.8; determined using one or more of the described methods; read-out: Activity range (estimated IC50).
T1 construct: expressed in transfected cells
Format: cell-based
Description: The ability of pyridine carboxamide derivatives exemplified above to inhibit the Nav1.8 channel was determined using one or more of the methods described below.
HEK Nav1.8 β1/β2 Stably Expressing Cell Line
A HEK293 cell line stably expressing the human Nav1.8 (hNav1.8) ion channel with β1/β2 subunits was constructed. The cell line is suitable for IC50 determination in fluorescence and electrophysiological based assays. It is also suitable to conduct mechanism of action pharmacology studies in electrophysiological assays. HEK293 Nav1.8 cells are grown as adherent monolayers in DMEM/high glucose media, 10% fetal bovine serum, Na pyruvate (2 mM), Hepes (10 mM) with selection agents G418 (400 mg/L) and puromycin (0.5 mg/L) at 37 degrees C., 10% CO2.
Nav1.8 Fluorescence Inhibition Assay
Compounds were made up to or supplied as a 10-mM stock solution using DMSO as the vehicle. Concentration-response curves were generated using a Matrix multichannel pipettor. Compound source plates were made by diluting 10 mM compound stocks to create 500 μM (100×) solutions in DMSO in 96-well v-bottom plates. Compounds were then serially diluted in 100% DMSO to generate a 5 point, 4-fold dilution scheme dose response curve. 2 μL of the 100× dose response curves were then added to preincubation and stimulation assay plates. 100 μL of pre-incubation buffer and 200 μl of stimulation buffer was then added to the plates resulting in a final assay test concentration range of 5 μM to 0.02 μM with a final DMSO concentration of 1%.
On the day of assay, plates were washed to remove cell culture media using 2K EBSS buffer (135 mM NaCl, 2 mM KCl, 5 mM Glucose, 2 mM CaCl2, 1 mM MgCl2, 10 mM HEPES, pH 7.4). The Na-sensitive fluorescent dye, Asante Natrium Green-2 (ANG-2) was incubated for 60 min to allow equilibration and then washed with 2K EBSS. Plates were then transferred to a fluorescence plate reader (FLIPR™, Molecular Devices) for fluorescence measurement using an excitation wavelength of 490 nm and an emission wavelength of 565 nm. Compounds were pre-incubated for 5 min at final test concentration in the presence of ouabain (30 μM) to inhibit Na+ efflux through Na+/K+ exchanger. Following the pre-incubation phase, hNav1.8 channels were stimulated with 10 μM of the pyrethroid deltamethrin to prevent channel inactivation. The assay was run for 15 minutes with vehicle and 30 μM tetracaine serving as negative and positive controls, respectively. The peak change in fluorescence relative to negative and positive control wells was calculated and fit with a logistic equation to determine IC50.
PatchXpress Nav1.8 Inhibition Assay
HEK-Nav1.8 β1/β2 cells were recorded in whole cell patch-clamp using the PatchXpress automated patch clamp platforms (Molecular Devices). Cell suspensions were obtained by trypsinization of adherent monolayers, followed by gentle rocking for minimally 30 min. Compounds were prepared from 10 mM DMSO stocks.
Nav1.8 channel variants were evaluated using Protocol 1 in which cells were initially voltage clamped at a holding potential of −100 mV to maintain Nav1.8 in a closed resting state. After current amplitude becomes stable, the mid-point voltage of steady state inactivation was determined for each cell using a series of 5 sec conditioning steps to increasingly depolarized voltages (−100 to 0 mV) The holding potential was then reset to a voltage that produces ˜50% inactivation (Vhalf-set automatically via PatchXpress scripts) so that closed and inactivated channel inhibition could be assessed. Protocol 1 was run at a frequency of 0.1 Hz until current amplitude is steady (automatically determined by PatchXpress scripts). The effect of test reagent on Nav current amplitude was monitored using custom PatchXpress stability scripts which determines the timing of compound addition and washout.
Data were processed and analyzed using DataXpress 2.0 (Molecular Devices). […]

T1 sequence (Q9Y5Y9 whole entry): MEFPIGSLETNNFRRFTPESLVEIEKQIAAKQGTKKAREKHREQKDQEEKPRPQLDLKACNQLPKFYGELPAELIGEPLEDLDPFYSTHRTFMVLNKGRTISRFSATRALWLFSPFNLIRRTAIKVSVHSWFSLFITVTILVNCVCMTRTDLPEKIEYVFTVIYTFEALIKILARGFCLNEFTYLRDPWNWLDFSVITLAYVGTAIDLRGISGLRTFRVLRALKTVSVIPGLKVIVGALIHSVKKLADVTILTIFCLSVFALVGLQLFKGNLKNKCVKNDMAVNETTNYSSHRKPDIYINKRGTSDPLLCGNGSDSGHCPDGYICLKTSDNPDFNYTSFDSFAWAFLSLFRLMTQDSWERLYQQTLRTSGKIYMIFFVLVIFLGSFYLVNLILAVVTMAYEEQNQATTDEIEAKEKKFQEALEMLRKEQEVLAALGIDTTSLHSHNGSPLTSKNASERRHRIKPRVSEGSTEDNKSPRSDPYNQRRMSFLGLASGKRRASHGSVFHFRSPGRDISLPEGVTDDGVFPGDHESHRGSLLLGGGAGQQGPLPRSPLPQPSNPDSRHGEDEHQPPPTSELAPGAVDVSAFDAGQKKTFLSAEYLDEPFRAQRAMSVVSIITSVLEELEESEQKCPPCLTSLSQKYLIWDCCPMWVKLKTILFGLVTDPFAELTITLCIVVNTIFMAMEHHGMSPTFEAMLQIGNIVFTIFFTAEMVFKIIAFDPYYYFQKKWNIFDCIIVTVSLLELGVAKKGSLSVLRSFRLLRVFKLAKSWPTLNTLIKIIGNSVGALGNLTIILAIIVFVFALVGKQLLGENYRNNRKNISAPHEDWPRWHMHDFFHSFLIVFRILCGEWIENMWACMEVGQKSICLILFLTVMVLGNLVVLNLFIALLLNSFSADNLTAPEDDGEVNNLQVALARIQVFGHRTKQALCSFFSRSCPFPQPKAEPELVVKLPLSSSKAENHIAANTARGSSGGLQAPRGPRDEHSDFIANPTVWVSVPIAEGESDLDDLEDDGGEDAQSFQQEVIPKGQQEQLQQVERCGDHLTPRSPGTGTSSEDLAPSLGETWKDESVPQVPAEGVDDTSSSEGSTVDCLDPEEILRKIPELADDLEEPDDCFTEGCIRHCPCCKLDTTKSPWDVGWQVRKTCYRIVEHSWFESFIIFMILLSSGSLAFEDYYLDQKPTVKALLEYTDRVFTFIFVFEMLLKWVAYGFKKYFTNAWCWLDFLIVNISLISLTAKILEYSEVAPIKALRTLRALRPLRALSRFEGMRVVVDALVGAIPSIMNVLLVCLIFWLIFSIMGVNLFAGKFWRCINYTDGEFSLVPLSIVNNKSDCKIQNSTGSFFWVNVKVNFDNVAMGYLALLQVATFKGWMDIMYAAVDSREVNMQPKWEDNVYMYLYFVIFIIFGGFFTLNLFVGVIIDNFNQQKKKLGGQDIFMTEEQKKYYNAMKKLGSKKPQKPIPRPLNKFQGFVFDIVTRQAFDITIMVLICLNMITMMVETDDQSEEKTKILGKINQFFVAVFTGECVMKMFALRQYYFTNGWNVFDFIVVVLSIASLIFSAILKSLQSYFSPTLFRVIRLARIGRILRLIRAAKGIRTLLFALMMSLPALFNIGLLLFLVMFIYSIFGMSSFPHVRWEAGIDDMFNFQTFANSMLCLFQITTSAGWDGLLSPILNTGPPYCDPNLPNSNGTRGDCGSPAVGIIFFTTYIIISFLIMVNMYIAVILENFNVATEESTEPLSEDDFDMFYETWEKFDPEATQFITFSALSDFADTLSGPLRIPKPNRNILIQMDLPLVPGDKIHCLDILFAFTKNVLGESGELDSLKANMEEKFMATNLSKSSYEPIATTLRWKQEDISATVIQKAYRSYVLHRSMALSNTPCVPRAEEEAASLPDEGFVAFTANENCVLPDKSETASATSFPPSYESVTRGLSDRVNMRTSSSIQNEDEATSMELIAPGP
T1 sequence (Q07699 19-218 partner): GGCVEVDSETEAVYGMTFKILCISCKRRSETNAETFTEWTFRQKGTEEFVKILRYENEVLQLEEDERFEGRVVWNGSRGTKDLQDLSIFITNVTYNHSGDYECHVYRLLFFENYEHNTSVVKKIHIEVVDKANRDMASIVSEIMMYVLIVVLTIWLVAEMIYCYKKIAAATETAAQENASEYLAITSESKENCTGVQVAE

| IC50 [nM] | Compound |
| --- | --- |
| > 1000 | O=C(NCc1cccnc1N1CCOCC1)c1cnnc(-c2ccc(Cl)cc2)c1 [Example 17, 6-(4-chlorophenyl)-N-[(2-morpholino-3-pyridyl)methyl]pyridazine-4-carboxamide] |
| < 500 | O=C(NCc1cccnc1N1CCOCC1)c1cnnc(-c2ccc(OC(F)(F)F)cc2)c1 [Example 6, N-[(2-morpholino-3-pyridyl)methyl]-6-[4-(trifluoromethoxy)phenyl]pyridazine-4-carboxamide] |
| < 500 | O=C(NCc1cccnc1N1CC2(COC2)C1)c1cnnc(-c2ccc(OCC3CC3)c(Cl)c2)c1 [Example 19, 6-[3-chloro-4-(cyclopropylmethoxy)phenyl]-N-[[2-(2-oxa-6-azaspiro[3.3]heptan-6-yl)-3-pyridyl]methyl]pyridazine-4-carboxamide] |
| < 500 | CC1CN(c2ncccc2CNC(=O)c2cnnc(-c3ccc(OCC4CC4)c(Cl)c3)c2)CCO1 (stereo not drawn) [Example 22, 6-[3-chloro-4-(cyclopropylmethoxy)phenyl]-N-[[2-(2-methylmorpholin-4-yl)-3-pyridyl]methyl]pyridazine-4-carboxamide] |
| < 500 | O=C(NCc1cccnc1N1CCCC1)c1cnnc(-c2ccc(OCC3CC3)c(Cl)c2)c1 [Example 29, 6-[3-chloro-4-(cyclopropylmethoxy)phenyl]-N-[(2-pyrrolidin-1-yl-3-pyridyl)methyl]pyridazine-4-carboxamide] |
| < 500 | CC1COCCN1c1ncccc1CNC(=O)c1cnnc(-c2ccc(OCC3CC3)c(Cl)c2)c1 (stereo not drawn) [Example 23, 6-[3-chloro-4-(cyclopropylmethoxy)phenyl]-N-[[2-(3-methylmorpholin-4-yl)-3-pyridyl]methyl]pyridazine-4-carboxamide] |
| < 500 | 6-[4-(difluoromethoxy)phenyl]-N-[(2-morpholinophenyl)methyl]pyridazine-4-carboxamide [Example 56] |
| < 500 | O=C(NCc1ccccc1N1CCOCC1)c1cnnc(-c2ccc(OC(F)(F)F)cc2)c1 [Example 57, 6-[4-(trifluoromethoxy)phenyl]-N-[(2-morpholinophenyl)methyl]pyridazine-4-carboxamide] |
| < 500 | O=C(NCc1cccnc1N1CCOCC1)c1cnnc(-c2ccc(OCC3CC3)cc2)c1 [Example 8, 6-[4-(cyclopropylmethoxy)phenyl]-N-[(2-morpholino-3-pyridyl)methyl]pyridazine-4-carboxamide] |
| < 500 | CC(Oc1ccc(-c2cc(C(=O)NCc3cccnc3N3CCOCC3)cnn2)cc1Cl)C1CC1 (stereo not drawn) [Example 45, 6-[3-chloro-4-(1-cyclopropylethoxy)phenyl]-N-[(2-morpholino-3-pyridyl)methyl]pyridazine-4-carboxamide] |
| < 500 | O=C(NCc1cccnc1N1CCCOCC1)c1cnnc(-c2ccc(OCC3CC3)c(Cl)c2)c1 [Example 21, 6-[3-chloro-4-(cyclopropylmethoxy)phenyl]-N-[[2-(1,4-oxazepan-4-yl)-3-pyridyl]methyl]pyridazine-4-carboxamide] |
| < 500 | O=C(NCc1cccnc1N1CCOCC1)c1cnnc(-c2ccc(OC3CC3)cc2)c1 [Example 15, 6-[4-(cyclopropoxy)phenyl]-N-[(2-morpholino-3-pyridyl)methyl]pyridazine-4-carboxamide] |
| 500 to 1000 | COc1ncccc1C(C)NC(=O)c1cnnc(-c2ccc(OCC3CC3)c(Cl)c2)c1 (stereo not drawn) [Example 43, 6-(3-chloro-4-(cyclopropylmethoxy)phenyl)-N-(1-(2-methoxypyridin-3-yl)ethyl)pyridazine-4-carboxamide] |
| 500 to 1000 | CS(=O)(=O)c1ccccc1CNC(=O)c1cnnc(-c2ccc(OCC3CC3)c(Cl)c2)c1 [Example 35, 6-[3-chloro-4-(cyclopropylmethoxy)phenyl]-N-[(2-methylsulfonylphenyl)methyl]pyridazine-4-carboxamide] |

The next lines start with the compound.

| Compound | IC50 [nM] |
| --- | --- |
| O=C(NCc1cccnc1N1CCOCC1)c1cnnc(-c2ccc(OCC3CC3)c(C(F)(F)F)c2)c1 [Example 47, 6-[4-(cyclopropylmethoxy)-3-(trifluoromethyl)phenyl]-N-[(2-morpholino-3-pyridyl)methyl]pyridazine-4-carboxamide] | < 500 |
| O=C(NCc1cccnc1N1CCOCC1)c1cnnc(-c2ccc(Cl)nc2)c1 [Example 2, 6-(6-chloro-3-pyridyl)-N-[(2-morpholino-3-pyridyl)methyl]pyridazine-4-carboxamide] | > 1000 |
| COc1ccccc1CNC(=O)c1cnnc(-c2ccc(OCC3CC3)c(Cl)c2)c1 [Example 36, 6-[3-chloro-4-(cyclopropylmethoxy)phenyl]-N-[(2-methoxyphenyl)methyl]pyridazine-4-carboxamide] | < 500 |
| CCOc1ccc(-c2cc(C(=O)NCc3cccnc3N3CCOCC3)cnn2)cc1Cl [Example 9, 6-(3-chloro-4-ethoxy-phenyl)-N-[(2-morpholino-3-pyridyl)methyl]pyridazine-4-carboxamide] | < 500 |
| Cc1cc(Cl)ccc1-c1cc(C(=O)NCc2cccnc2N2CCOCC2)cnn1 [Example 4, 6-(4-chloro-2-methyl-phenyl)-N-[(2-morpholino-3-pyridyl)methyl]pyridazine-4-carboxamide] | < 500 |
| Cc1ccc(CNC(=O)c2cnnc(-c3ccc(OCC4CC4)c(Cl)c3)c2)c(N2CCOCC2)n1 [Example 24, 6-[3-chloro-4-(cyclopropylmethoxy)phenyl]-N-[(6-methyl-2-morpholino-3-pyridyl)methyl]pyridazine-4-carboxamide] | < 500 |
| O=C(NCc1cccnc1OCC(F)(F)F)c1cnnc(-c2ccc(OCC3CC3)c(Cl)c2)c1 [Example 20, 6-[3-chloro-4-(cyclopropylmethoxy)phenyl]-N-[[2-(2,2,2-trifluoroethoxy)-3-pyridyl]methyl]pyridazine-4-carboxamide] | < 500 |
| Cc1ccnc(N2CCOCC2)c1CNC(=O)c1cnnc(-c2ccc(OCC3CC3)c(Cl)c2)c1 [Example 25, 6-[3-chloro-4-(cyclopropylmethoxy)phenyl]-N-[(4-methyl-2-morpholino-3-pyridyl)methyl]pyridazine-4-carboxamide] | < 500 |
| CC(C)Oc1ccc(-c2cc(C(=O)NCc3cccnc3N3CCOCC3)cnn2)cc1F [Example 14, 6-(3-fluoro-4-isopropoxy-phenyl)-N-[(2-morpholino-3-pyridyl)methyl]pyridazine-4-carboxamide] | < 500 |
| CCC1CN(c2ncccc2CNC(=O)c2cnnc(-c3ccc(OCC4CC4)c(Cl)c3)c2)CCO1 (stereo not drawn) [Example 41, 6-[3-chloro-4-(cyclopropylmethoxy)phenyl]-N-[[2-(2-ethylmorpholin-4-yl)-3-pyridyl]methyl]pyridazine-4-carboxamide] | < 500 |
| CCOc1ccc(-c2cc(C(=O)NCc3cccnc3N3CCOCC3)cnn2)cc1F [Example 12, 6-(4-ethoxy-3-fluoro-phenyl)-N-[(2-morpholino-3-pyridyl)methyl]pyridazine-4-carboxamide] | < 500 |
| CC1COCCN1c1ncccc1CNC(=O)c1cnnc(-c2ccc(OCC3CC3)cc2)c1 (stereo not drawn) [Example 50, 6-[4-(cyclopropylmethoxy)phenyl]-N-[[2-(3-methylmorpholin-4-yl)-3-pyridyl]methyl]pyridazine-4-carboxamide] | > 1000 |
| Cc1ccccc1CNC(=O)c1cnnc(-c2ccc(OCC3CC3)c(Cl)c2)c1 [Example 37, 6-[3-chloro-4-(cyclopropylmethoxy)phenyl]-N-(o-tolylmethyl)pyridazine-4-carboxamide] | < 500 |
